Key:
Puccinia triticina = assay: Use Example 7: preventative control of brown rust on wheat (PUCCRT P10); format: in vivo, Puccinia triticina (syn. P. recondita); details: 16 ppm, ten days before inoculation, 6 days, untreated 80
Experimental: (§1) The compound was dissolved in a mixture of acetone and/or dimethylsulfoxide and the wetting agent/emulsifier Wettol, which is based on ethoxylated alkylphenoles, in a ratio (volume) solvent-emulsifier of 99 to 1 to give a total volume of 5 ml. Subsequently, water was added to total volume of 100 ml. This stock solution was then diluted with the described solvent-emulsifier-water mixture to the final concentration given in the tables below.
Use Example 7. Preventative Control of Brown Rust on Wheat Caused by Puccinia triticina (Syn. P. recondita) (PUCCRT P10)
The first two developed leaves of potted wheat seedling were sprayed to run-off with previously described spray solution, containing the concentration of active ingredient or their mixture as described below. Ten days later the plants were inoculated with spores of Puccinia triticina. To ensure the success of the artificial inoculation, the plants were transferred to a humid chamber without light and a relative humidity of 95 to 99% and 20 to 24° C. for 24 h. Then the trial plants were cultivated for 6 days in a greenhouse chamber at 20-24° C. and a relative humidity between 65 and 70%. The extent of fungal attack on the leaves was visually assessed as % diseased leaf area.

Puccinia sorghi = assay: Use Example 8: protective control of corn rust on corn (PUCCSO P1); format: in vivo; details: 16 ppm, untreated 80%
Experimental: as §1
Use Example 8. Protective Control of Corn Rust on Corn Caused by Puccinia sorghi (PUCCSO P1)
The primary leaves of potted corn seedling were sprayed to run-off with previously described spray solution, containing the concentration of active ingredient or their mixture as described below. One day later the plants were dusted with before harvested spores of Puccinia sorghi. To ensure the success of the artificial inoculation, the plants were transferred to a humid chamber without light and a relative humidity of […] and 20 to 24° C. and were there incubated for about fourteen days. The extent of fungal attack on the primary leaves was visually assessed as % diseased leaf area.

Sclerotinia sclerotiorum = assay: Use Example 13: preventative fungicidal control of white mold on soy beans (SCLESC P1 mycelium); format: in vivo; details: 63 ppm, untreated 85%
Experimental: as §1
Use Example 13. Preventative Fungicidal Control of White Mold on Soy Beans Caused by Sclerotinia sclerotiorum (SCLESC P1 Mycelium)
Young seedlings of soy beans were grown in pots. These plants were sprayed to run-off with previously described spray solution, containing the concentration of active ingredient or mixture mentioned in the table below. The next day the treated plants were inoculated with a biomalt suspension, containing the mycelium of Sclerotinia sclerotiorum. Then the trial plants were cultivated for 6 days in a greenhouse chamber at 23° C. and a relative humidity between 80 and 85%. The extent of fungal attack on the leaves was visually assessed as % diseased leaf area.

SMILES	Diseased leaf area (%) (Puccinia triticina)	Diseased leaf area (%) (Puccinia sorghi)	Diseased leaf area (%) (Sclerotinia sclerotiorum)
CO/C=C(/C(=O)OC)c1cccc(C)c1CO/N=C(\COC)c1c(F)cc(F)cc1F [Compound 4, methyl (E)-3-methoxy-2-[2-[[(Z)-[2-methoxy-1-(2,4,6-trifluorophenyl)ethylidene]amino]oxymethyl]-3-methyl-phenyl]prop-2-enoate]	12%		
CNC(=O)/C(=N/OC)c1cccc(C)c1CO/N=C(\COC)c1c(F)cc(OC)cc1F [Compound 7, (2E)-2-[2-[[(Z)-[1-(2,6-difluoro-4-methoxy-phenyl)-2-methoxy-ethylidene]amino]oxymethyl]-3-methyl-phenyl]-2-methoxyimino-N-methyl-acetamide]	4%	12%	4%
CNC(=O)/C(=N/OC)c1cccc(C)c1CO/N=C(\COC)c1ccc(F)c(F)c1 [Compound 5, (2E)-2-[2-[[(Z)-[1-(3,4-difluorophenyl)-2-methoxy-ethylidene]amino]oxymethyl]-3-methylphenyl]-2-methoxyimino-N-methyl-acetamide]	12%	0%	
CO/C=C(/C(=O)OC)c1cccc(C)c1CO/N=C(\COC)c1ccc(Cl)cc1Cl [Compound 6, methyl (E)-2-[2-[[(Z)-[1-(2,4-dichlorophenyl)-2-methoxy-ethylidene]amino]oxymethyl]-3-methyl-phenyl]-3-methoxy-prop-2-enoate]	5%		
